Results on 28 molecules are retold here after US10144706B2 (BRISTOL-MYERS SQUIBB COMPANY, priority 2016, dated 2018).

Molecules are shown by their SMILES.

In one experiment the target is T1, PD-1/PD-L1 interaction (PD-1-Ig / PD-L1-His) (Homo sapiens, UniProt Q9NZQ7).
T1 construct: hPDL1(18-239)-TVMV-His; TVMV protease site linker (C); made in house; host or cells: HEK293T
T1 sequence (Q9NZQ7 with tags, fused parts or gaps): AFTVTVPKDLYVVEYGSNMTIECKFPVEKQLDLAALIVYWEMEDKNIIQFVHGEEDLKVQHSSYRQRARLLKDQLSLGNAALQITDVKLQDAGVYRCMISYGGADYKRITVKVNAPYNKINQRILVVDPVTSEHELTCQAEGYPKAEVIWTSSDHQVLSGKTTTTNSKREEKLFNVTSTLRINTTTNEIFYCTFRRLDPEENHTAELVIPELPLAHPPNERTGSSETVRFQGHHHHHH
The experiment in a line: PD-1/PD-L1 Homogenous Time-Resolved Fluorescence (HTRF) binding assay. Conditions: IC50 range class; PD-L1-His 10 nM, PD-1-Ig 20 nM; read-out: Range or IC50. Summed up:
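HTRF detection used 1 nM europium-cryptate anti-Ig and 20 nM APC anti-His. Compounds first saw 10 nM PD-L1-His for 15 min, and 20 nM PD-1-Ig was then added for another 15 min. Buffer was dPBS plus 0.1% BSA and 0.05% Tween-20. All concentrations are final.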
A general note: TR-FRET usually uses a lanthanide donor and a delayed reading to cut background.
Turning to `CCCN(Cc1cc(Cl)c(OCc2cccc(-c3cccc(COc4cc(OCc5cncc(C#N)c5)c(CN(CCC)C(CCO)C(=O)O)cc4Cl)c3C)c2C)cc1OCc1cncc(C#N)c1)C(CCO)C(=O)O` (stereo not shown) [Example 40820], the IC50 is 0.04 to 20 nM.
Regarding `Cc1c(COc2cc(OCc3cncc(C#N)c3)c(CN(CC3CC3)C(CCO)C(=O)O)cc2Cl)cccc1-c1cccc(COc2cc(OCc3cncc(C#N)c3)c(CN(CC3CC3)C(CCO)C(=O)O)cc2Cl)c1C` (stereo not shown) [Example 40830], the IC50 is 0.04 to 20 nM.
As to `Cc1c(COc2cc(OCc3cncc(C#N)c3)c(CNC(CCO)C(=O)O)cc2Cl)cccc1-c1cccc(COc2cc(OCc3cncc(C#N)c3)c(CN(CC3CC3)C(CCO)C(=O)O)cc2Cl)c1C` (stereo not shown) [Example 40840], the IC50 lay in the range of 0.04 to 20 nM.
Same read-out and setting: the result for `Cc1c(COc2cc(OCc3cncc(C#N)c3)c(CN(CC(C)C)C(CCO)C(=O)O)cc2Cl)cccc1-c1cccc(COc2cc(OCc3cncc(C#N)c3)c(CN(CC(C)C)C(CCO)C(=O)O)cc2Cl)c1C` (stereo not shown) [Example 40850] reads 0.04 to 20 nM.
Same read-out and setting: in the case of `Cc1c(COc2cc(OCc3cncc(C(N)=O)c3)c(CN[C@@H](CCO)C(=O)O)cc2Cl)cccc1-c1cccc(COc2cc(OCc3cncc(C(N)=O)c3)c(CN[C@@H](CCO)C(=O)O)cc2Cl)c1C` [Example 40870] it was 0.04 to 20 nM.
As to `Cc1c(COc2cc(OCc3cncc(C#N)c3)c(CN[C@@H](C(=O)O)[C@H](C)O)cc2Cl)cccc1-c1cccc(COc2cc(OCc3cncc(C#N)c3)c(CN[C@@H](C(=O)O)[C@H](C)O)cc2Cl)c1C` [Example 40880], the IC50 lay in the range of 0.04 to 20 nM.
Same read-out and setting: the result for `Cc1c(COc2cc(OCc3cncc(C#N)c3)c(CN[C@@H](C(=O)O)[C@@H](C)O)cc2Cl)cccc1-c1cccc(COc2cc(OCc3cncc(C#N)c3)c(CN[C@@H](C(=O)O)[C@@H](C)O)cc2Cl)c1C` [Example 40890] reads 0.04 to 20 nM.
Regarding `COC(=O)[C@@H](NCc1cc(Cl)c(OCc2cccc(-c3cccc(COc4cc(OCc5cncc(C#N)c5)c(CN[C@H](C(=O)OC)[C@H](C)O)cc4Cl)c3C)c2C)cc1OCc1cncc(C#N)c1)[C@H](C)O` [Example 40900], the IC50 lay in the range of 1000 to 10000 nM.
On the same count and under the same terms, in the case of `COC(=O)[C@H](NCc1cc(Cl)c(OCc2cccc(-c3cccc(COc4cc(OCc5cncc(C#N)c5)c(CN[C@H](C(=O)O)C(=O)OC)cc4Cl)c3C)c2C)cc1OCc1cncc(C#N)c1)C(=O)O` [Example 40910] it was 1000 to 10000 nM; in that of `Cc1c(COc2cc(OCc3cncc(C#N)c3)c(CN[C@H](C(=O)O)[C@@H](C)OC(C)(C)C)cc2Cl)cccc1-c1cccc(COc2cc(OCc3cncc(C#N)c3)c(CN[C@H](C(=O)O)[C@@H](C)OC(C)(C)C)cc2Cl)c1C` [Example 40930], 0.04 to 20 nM.
The same measure, in the same setting: in the case of `CO[C@H](C)[C@H](NCc1cc(Cl)c(OCc2cccc(-c3cccc(COc4cc(OCc5cncc(C#N)c5)c(CN[C@H](C(=O)O)[C@@H](C)OC)cc4Cl)c3C)c2C)cc1OCc1cncc(C#N)c1)C(=O)O` [Example 40940] it was 0.04 to 20 nM.
Same read-out and setting: in the case of `Cc1c(COc2cc(OCc3cncc(C#N)c3)c(CN[C@@H](C(=O)O)[C@H](C)OCc3ccccc3)cc2Cl)cccc1-c1cccc(COc2cc(OCc3cncc(C#N)c3)c(CN[C@@H](C(=O)O)[C@H](C)OCc3ccccc3)cc2Cl)c1C` [Example 40960] it was 20.1 to 90 nM.
As to `Cc1c(COc2cc(OCc3cncc(C#N)c3)c(CN(Cc3cncs3)C(CCO)C(=O)O)cc2Cl)cccc1-c1cccc(COc2cc(OCc3cncc(C#N)c3)c(CN(Cc3cncs3)C(CCO)C(=O)O)cc2Cl)c1C` (stereo not shown) [Example 40990], the IC50 was 0.04 to 20 nM.
On the same count and under the same terms, the result for `Cc1c(COc2cc(OCc3cncc(C#N)c3)c(CN(CCC(C)C)C(CCO)C(=O)O)cc2Cl)cccc1-c1cccc(COc2cc(OCc3cncc(C#N)c3)c(CN(CCC(C)C)C(CCO)C(=O)O)cc2Cl)c1C` (stereo not shown) [Example 41010] reads 0.04 to 20 nM; that for `Cc1c(COc2cc(OCc3cncc(C#N)c3)c(CN(CC3CCCO3)C(CCO)C(=O)O)cc2Cl)cccc1-c1cccc(COc2cc(OCc3cncc(C#N)c3)c(CN(CC3CCCO3)C(CCO)C(=O)O)cc2Cl)c1C` (stereo not shown) [Example 41020], 0.04 to 20 nM; that for `Cc1c(COc2cc(OCc3cncc(C#N)c3)c(CNC(CCO)C(=O)O)cc2Cl)cccc1-c1cccc(COc2cc(OCc3cncc(C#N)c3)c(CN(CC3CCCO3)C(CCO)C(=O)O)cc2Cl)c1C` (stereo not shown) [Example 41030], 0.04 to 20 nM.
As to `Cc1c(COc2cc(OCc3cncc(C#N)c3)c(CN[C@H](C(=O)O)[C@@H](C)OCc3ccccc3)cc2Cl)cccc1-c1cccc(COc2cc(OCc3cncc(C#N)c3)c(CN[C@H](C(=O)O)[C@@H](C)OCc3ccccc3)cc2Cl)c1C` [Example 41050], the half-maximal inhibitory concentration (IC50) lay in the range of 20.1 to 90 nM.
The same measure, in the same setting: in the case of `Cc1c(COc2cc(OCc3cncc(C#N)c3)c(CN[C@H](CCO)C(=O)O)cc2Cl)cccc1-c1cccc(COc2cc(OCc3cncc(C#N)c3)c(CN[C@H](CCO)C(=O)O)cc2Cl)c1C` [Example 41090] it was 0.04 to 20 nM; in that of `Cc1c(COc2cc(OCc3cncc(C#N)c3)c(CN[C@H](C(=O)O)[C@@H](C)O)cc2Cl)cccc1-c1cccc(COc2cc(OCc3cncc(C#N)c3)c(CN[C@H](C(=O)O)[C@@H](C)O)cc2Cl)c1C` [Example 41100], 0.04 to 20 nM; in that of `Cc1c(COc2cc(OCc3cncc(C#N)c3)c(CN[C@H](C(=O)O)[C@H](C)O)cc2Cl)cccc1-c1cccc(COc2cc(OCc3cncc(C#N)c3)c(CN[C@H](C(=O)O)[C@H](C)O)cc2Cl)c1C` [Example 41110], 0.04 to 20 nM.
Same read-out and setting: in the case of `Cc1c(COc2cc(OCc3cncc(C#N)c3)c(CN[C@@H](C(=O)O)[C@H](C)O)cc2Cl)cccc1-c1cccc(COc2cc(OCc3cncc(C#N)c3)c(CN[C@@H](C(=O)O)[C@@H](C)O)cc2Cl)c1C` [Example 41130] it was 0.04 to 20 nM.
For the molecule `C[C@@](CO)(NCc1cc(Cl)c(OCc2cccc(-c3cccc(COc4cc(OCc5cncc(C#N)c5)c(CN[C@@](C)(CO)C(=O)O)cc4Cl)c3Cl)c2Cl)cc1O)C(=O)O` [Example 41170], the IC50 lay in the range of 0.04 to 20 nM.
Same read-out and setting: the result for `N#Cc1cncc(COc2cc(OCc3cccc(-c4cccc(COc5cc(O)c(CNC(CCO)C(=O)O)cc5Cl)c4Cl)c3Cl)c(Cl)cc2CNC(CCO)C(=O)O)c1` (stereo not shown) [Example 41180] reads 0.04 to 20 nM; that for `C[C@](CO)(NCc1cc(Cl)c(OCc2cccc(-c3cccc(COc4cc(OCc5cncc(C#N)c5)c(CN[C@](C)(CO)C(=O)O)cc4Cl)c3Cl)c2Cl)cc1OCc1cncc(C#N)c1)C(=O)O` [Example 41190], 0.04 to 20 nM; that for `CC(CO)(NCc1cc(Cl)c(OCc2cccc(-c3cccc(COc4cc(OCc5cncc(C#N)c5)c(CNC(C)(CO)C(=O)O)cc4Cl)c3Cl)c2Cl)cc1OCc1cncc(C#N)c1)C(=O)O` (stereo not shown) [Example 41200], 0.04 to 20 nM.
As for `Cc1c(COc2cc(OCc3cncc(C#N)c3)c(CN[C@](C)(CO)C(=O)O)cc2Cl)cccc1-c1cccc(COc2cc(OCc3cncc(C#N)c3)c(CN[C@](C)(CO)C(=O)O)cc2Cl)c1C` [Example 41210], the IC50 lay within 0.04 to 20 nM.
The same measure, in the same setting: the result for `COc1ccc(CNCc2cc(Cl)c(OCc3cccc(-c4cccc(COc5cc(OCc6cncc(C#N)c6)c(CNCc6ccc(OC)cc6OC)cc5Cl)c4C)c3C)cc2OCc2cncc(C#N)c2)c(OC)c1` [Example 41230] reads 20.1 to 90 nM.

Still in this experiment, the particulars now being: numeric IC50; PD-L1-His 10 nM, PD-1-Ig 20 nM; read-out: Range or IC50.
For `COC(=O)[C@@H](NCc1cc(Cl)c(OCc2cccc(-c3cccc(COc4cc(OCc5cncc(C#N)c5)c(CN[C@H](C(=O)OC)[C@@H](C)OC(C)(C)C)cc4Cl)c3C)c2C)cc1OCc1cncc(C#N)c1)[C@@H](C)OC(C)(C)C` [Example 40950], the IC50 is 168 nM.

As usually defined, the IC50 is the midpoint of a concentration-inhibition curve.
